Measurements as given in a melting point compilation (Tetko et al.; mined from patent text by program, amines drawn as free bases though some values may be those of a salt).

Row | Compound | melting point [°C]
1 | CCN(CC)C(=O)NC1CC2c3cccc4[nH]c(C#Cc5ccc(C#N)cc5)c(c34)CC2N(C)C1 (stereo not given) | 150 to 151
2 | CN1CCN(c2ncc3c(=O)c(C(=O)O)cn(C4CC4)c3n2)CC1 | 209 to 210
3 | Cc1cccc(C(=O)Nc2ccc(N3CCN(Cc4ccccc4)CC3)nc2)c1-c1ccc(C(C)C)cc1 | 138 to 140
4 | CC(C)C(C)C=CC(C)C1CCC2C3=CC=C4CC(O)C=CC4(C)C3CCC21C (stereo not given) | 156 to 157
5 | N=C(N)NC[C@H]1CC[C@H](C(=O)O)CC1 | 206 to 208
6 | COc1cc(OC)cc(-c2ncoc2-c2ccc(OC(F)F)c(N)c2)c1 | 105
7 | CN(C)CC(C)(C)C(NC(=O)c1ccc(Cl)cc1)NC(=NC#N)Nc1cccnc1 (stereo not given) | 101 to 103
8 | O=S(=O)(c1ccc(F)cc1)N1CCCC1c1ccccc1F (racemic) | 108
9 | CC(C)(/C=C/I)C(=O)Nc1ccc(Cl)cc1 | 145 to 146
10 | FC(F)(F)c1cccc(N=c2ccn3ccccc3c2)c1 | 134 to 135
11 | O=C1C(=O)c2ccccc2C2=C1SCC1(CCC(c3ccccc3)CC1)O2 (stereo not given) | 183 to 187
12 | CCCCCCC(C)(C)c1ccc([C@@H]2CCC[C@H](O)C2)c(O)c1 (relative stereo) | 109 to 110
13 | CCC1(C)CC(O)C2(C)CCC3c4ccc(O)cc4CCC3C12 (stereo not given) | 132 to 136
14 | Cc1c(CO)ncn1Cc1ccccc1 | 176 to 180
15 | CCCSc1csc(C(=O)O)c1S(=O)(=O)NC(C)(C)C | 123 to 126
16 | BrCc1nsc2nc3ccccc3n12 | 242 to 244
17 | C[C@H](c1ccccc1)N1CC(=NO)C2(CCC2)C1=O | 203 to 208
18 | O=C(Nc1ccc(Cl)nc1)c1ccc(-n2ccnc2)c(F)c1 | 210 to 211
19 | Cc1ccc(C2=C(c3ccc(S(C)(=O)=O)cc3)CN(C3CC3)C2=O)cc1 | 214 to 216

Now from value to molecule:

Row | melting point [°C] | Compound
20 | 184 | Nc1nc2ccccc2c2c1ncn2CCOC/C=C/c1ccccc1
21 | 102 to 105 | Cc1nc(C)c(Cl)c(NCc2nccc(OCCOCCSCCn3c([N+](=O)[O-])cnc3C)c2C)n1
22 | 108 to 125 | CNC(=O)c1cccc(C=NNc2ccc(C)cc2)c1O
23 | 202 to 204 | COc1cc(C(C)=O)ccc1OCCCN1CCC(c2n[nH]c3cc(F)ccc23)CC1
24 | 196 | Cc1ccc(NC(=O)c2cc(C#N)cc(C)n2)nc1
25 | 137 to 139 | CCOC(=O)N(c1ccc(Cl)cc1N)c1ccc(Cl)cc1Cl
26 | 181 to 182 | O=C(/C=C/c1ccn(S(=O)(=O)c2ccc(-c3ccccn3)s2)c1)NO
27 | 205 to 206 | CN1CCC(c2c(O)cc(O)c3c(=O)cc(-c4ccccc4Cl)oc23)C1CS (stereo not given)
28 | 82 to 83 | CC(=O)NC(CC(=O)c1ccccc1)OC(C)=O (stereo not given)
29 | 187 to 189 | C#CCOC(=O)[C@H](Cc1c[nH]cn1)NC(=O)C(Cc1cccc2ccccc12)Cc1cccc2ccccc12
30 | 106 to 108 | COC(=O)CCc1cc2cc(C(F)(F)F)ccc2[nH]1
31 | 153 | CCCCCCCCCCCCCCC(=O)Oc1ccc2cc(C(=N)N)ccc2c1
32 | 173 to 174 | Cc1c(NC(=O)CCCC(=O)c2ccc(Cl)cc2)ccc2cc(CN3CCCC3)cnc12
33 | 67 | Oc1ccc(OCc2ccccc2)cc1F
34 | 260 to 263 | CNC(=O)c1cn(C)c2cc(Cl)ccc2c1=O
35 | 168 to 171 | O=C(O)CCCC(=O)Oc1cccc(-c2cn3c(n2)sc2ccccc23)c1
36 | 75 | Cc1ncc(CCCN2C(=O)c3ccccc3C2=O)s1
37 | 174 to 176 | O=C(COc1ccc(Cl)c2c(=O)c3ccccc3sc12)c1ccccc1
38 | 204 to 208 | CCOP(=O)(Cc1nnc2c(=O)[nH]c3ccc(C(F)(F)F)cc3n12)OCC
39 | 141 to 144 | N#CCOC(=O)c1ccc(CNC(=O)CCCCCN2C(=O)C=CC2=O)cc1O
40 | 117 to 120 | O=C(NCCCCCCOC(=O)Oc1ccc([N+](=O)[O-])cc1)OC1CCN(C(=O)Oc2ccc(Oc3ccccc3)cc2)CC1
